Data taken from the NIST ThermoML archive (doi:10.1021/je050175u).

Assay: excess molar enthalpy (molar enthalpy of mixing); xn = mol fraction of the nth substance listed
Settings: Liquid, Flow calorimetry

COC(C)=O [methyl ethanoate] + CCCCCO
excess molar enthalpy [kcal/mol]
Settings | 298.15 K | 308.15 K
5000 kPa, x1 = 0.049 | 0.0821 | –
5000 kPa, x1 = 0.1 | 0.157 | –
5000 kPa, x1 = 0.15 | 0.22 | –
5000 kPa, x1 = 0.2 | 0.273 | –
5000 kPa, x1 = 0.249 | 0.314 | –
5000 kPa, x1 = 0.299 | 0.349 | –
5000 kPa, x1 = 0.349 | 0.375 | –
5000 kPa, x1 = 0.401 | 0.394 | –
5000 kPa, x1 = 0.451 | 0.404 | –
5000 kPa, x1 = 0.5 | 0.407 | –
5000 kPa, x1 = 0.55 | 0.403 | –
5000 kPa, x1 = 0.599 | 0.391 | –
5000 kPa, x1 = 0.65 | 0.371 | –
5000 kPa, x1 = 0.749 | 0.31 | –
5000 kPa, x1 = 0.801 | 0.264 | –
5000 kPa, x1 = 0.85 | 0.213 | –
5000 kPa, x1 = 0.901 | 0.15 | –
5000 kPa, x1 = 0.95 | 0.08 | –
10000 kPa, x1 = 0.049 | 0.0827 | –
10000 kPa, x1 = 0.051 | – | 0.0858
10000 kPa, x1 = 0.099 | 0.158 | 0.162
10000 kPa, x1 = 0.15 | 0.221 | 0.223
10000 kPa, x1 = 0.199 | 0.273 | 0.281
10000 kPa, x1 = 0.248 | 0.315 | –
10000 kPa, x1 = 0.251 | – | 0.325
10000 kPa, x1 = 0.299 | 0.35 | 0.361
10000 kPa, x1 = 0.348 | 0.375 | –
10000 kPa, x1 = 0.351 | – | 0.388
10000 kPa, x1 = 0.4 | 0.394 | 0.406
10000 kPa, x1 = 0.45 | 0.404 | 0.418
10000 kPa, x1 = 0.499 | 0.407 | 0.419
10000 kPa, x1 = 0.55 | 0.403 | 0.415
10000 kPa, x1 = 0.599 | 0.391 | 0.402
10000 kPa, x1 = 0.649 | 0.371 | 0.382
10000 kPa, x1 = 0.701 | – | 0.351
10000 kPa, x1 = 0.748 | 0.309 | –
10000 kPa, x1 = 0.752 | – | 0.316
10000 kPa, x1 = 0.8 | 0.263 | 0.272
10000 kPa, x1 = 0.85 | 0.21 | 0.22
10000 kPa, x1 = 0.901 | 0.146 | 0.152
10000 kPa, x1 = 0.95 | 0.0747 | 0.0782

COC(C)=O [methyl ethanoate] + CCCCO
excess molar enthalpy [kcal/mol]
Settings | 5000 kPa | 10000 kPa
298.15 K, x1 = 0.05 | 0.0776 | 0.077
298.15 K, x1 = 0.1 | 0.145 | 0.144
298.15 K, x1 = 0.149 | 0.201 | 0.2
298.15 K, x1 = 0.199 | 0.248 | –
298.15 K, x1 = 0.201 | – | 0.249
298.15 K, x1 = 0.249 | 0.287 | –
298.15 K, x1 = 0.251 | – | 0.288
298.15 K, x1 = 0.3 | 0.32 | 0.318
298.15 K, x1 = 0.349 | 0.343 | –
298.15 K, x1 = 0.351 | – | 0.343
298.15 K, x1 = 0.399 | 0.359 | –
298.15 K, x1 = 0.401 | – | 0.36
298.15 K, x1 = 0.449 | – | 0.369
298.15 K, x1 = 0.45 | 0.37 | –
298.15 K, x1 = 0.5 | – | 0.372
298.15 K, x1 = 0.501 | 0.372 | –
298.15 K, x1 = 0.549 | – | 0.368
298.15 K, x1 = 0.55 | 0.368 | –
298.15 K, x1 = 0.599 | – | 0.358
298.15 K, x1 = 0.6 | 0.359 | –
298.15 K, x1 = 0.65 | – | 0.34
298.15 K, x1 = 0.651 | 0.341 | –
298.15 K, x1 = 0.699 | 0.316 | –
298.15 K, x1 = 0.701 | – | 0.314
298.15 K, x1 = 0.751 | 0.284 | 0.284
298.15 K, x1 = 0.8 | – | 0.244
298.15 K, x1 = 0.801 | 0.244 | –
298.15 K, x1 = 0.851 | 0.194 | 0.196
298.15 K, x1 = 0.899 | 0.141 | 0.141
298.15 K, x1 = 0.951 | 0.0726 | 0.0726
308.15 K, x1 = 0.047 | – | 0.0732
308.15 K, x1 = 0.098 | – | 0.147
308.15 K, x1 = 0.146 | – | 0.208
308.15 K, x1 = 0.193 | – | 0.257
308.15 K, x1 = 0.243 | – | 0.301
308.15 K, x1 = 0.291 | – | 0.335
308.15 K, x1 = 0.343 | – | 0.363
308.15 K, x1 = 0.39 | – | 0.382
308.15 K, x1 = 0.44 | – | 0.395
308.15 K, x1 = 0.492 | – | 0.398
308.15 K, x1 = 0.541 | – | 0.396
308.15 K, x1 = 0.591 | – | 0.385
308.15 K, x1 = 0.641 | – | 0.369
308.15 K, x1 = 0.692 | – | 0.344
308.15 K, x1 = 0.744 | – | 0.309
308.15 K, x1 = 0.794 | – | 0.267
308.15 K, x1 = 0.896 | – | 0.158
308.15 K, x1 = 0.947 | – | 0.0845
